Results published in ChEMBL document CHEMBL1159104, “Potent transglutaminase inhibitors, aryl beta-aminoethyl ketones” (Bioorg Med Chem Lett, 2010).

Target: T1, Protein-glutamine gamma-glutamyltransferase (Cavia porcellus, UniProt Q7M0F8)
T1 sequence (Q7M0F8 whole entry): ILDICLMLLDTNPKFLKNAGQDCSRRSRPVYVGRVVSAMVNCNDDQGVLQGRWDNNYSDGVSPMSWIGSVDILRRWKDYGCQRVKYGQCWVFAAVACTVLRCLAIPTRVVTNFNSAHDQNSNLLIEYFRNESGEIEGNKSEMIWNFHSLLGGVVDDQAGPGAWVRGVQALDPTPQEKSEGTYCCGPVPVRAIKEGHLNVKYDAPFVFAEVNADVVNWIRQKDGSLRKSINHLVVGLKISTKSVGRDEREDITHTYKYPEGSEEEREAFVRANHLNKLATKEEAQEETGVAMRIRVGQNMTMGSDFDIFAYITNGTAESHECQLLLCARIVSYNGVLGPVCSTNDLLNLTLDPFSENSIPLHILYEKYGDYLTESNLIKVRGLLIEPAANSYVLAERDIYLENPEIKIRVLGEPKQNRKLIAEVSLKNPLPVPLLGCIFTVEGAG
Test: Inhibition of guinea pig liver transglutaminase

| IC50 [nM] | Structure (SMILES) |
| --- | --- |
| 14000 | CN(CCO)CCC(=O)c1ccsc1 |
| 550 | CCN(CCC(=O)c1ccco1)Cc1ccccc1 |
| 3200 | CC(C)N(CCC(=O)c1nccs1)Cc1ccccc1 |
| 360 | O=C(CCN(CCO)CCO)c1ccco1 |
| 650 | CC(C)(C)N(CCC(=O)c1ccco1)Cc1ccccc1 |
| 800 | CCCCN(CCO)CCC(=O)c1ccc(C)o1 |
| 920 | CCc1nccnc1C(=O)CCN(Cc1ccccc1)C(C)C |
| 1200 | CN(CCC(=O)c1cnccn1)Cc1ccccc1 |
| 10000 | CCCCN(CCO)CCC(=O)c1ccccn1 |
| 2700 | CCCCN(CCO)CCC(=O)c1cccnc1 |
| 7900 | CN(CCO)CCC(=O)c1ccncc1 |
| 3500 | O=C(CCN(CCO)CCO)c1ccncc1 |
| 2500 | CCCCN(CCO)CCC(=O)c1ccncc1 |
| 6500 | CC(C)N(CCO)CCC(=O)c1cccs1 |
| 5400 | CC(C)N(CCO)CCC(=O)c1ccc(Cl)s1 |
| 6900 | CC(C)N(CCO)CCC(=O)c1cnccn1 |
| 1800 | CN(CCC(=O)c1ccco1)Cc1ccccc1 |
| 11000 | CC(C)(C)N(CCO)CCC(=O)c1ccncc1 |
| 2300 | Cc1ccc(C(=O)CCN(Cc2ccccc2)C(C)(C)C)o1 |
| 320 | CC(C)N(CCC(=O)c1ccco1)Cc1ccccc1 |
| 15000 | CCc1nccnc1C(=O)CCN(CCO)CCO |
| 2500 | O=C(CCN(CCO)Cc1ccccc1)c1ccncc1 |

| IC50 [nM] | Structure (SMILES) |
| --- | --- |
| 320 | Cc1ccc(C(=O)CCN(Cc2ccccc2)C(C)C)o1 |
| 1400 | CCN(CCC(=O)c1ccncc1)Cc1ccccc1 |
| 19000 | CCCCN(CCO)CCC(=O)c1cccs1 |
| 10000 | O=C(CCN(CCO)Cc1ccccc1)c1cccs1 |
| 4000 | CN(CCO)CCC(=O)c1cccs1 |
| 1400 | CCCCN(CCO)CCC(=O)c1ccc(Br)s1 |
| 1700 | CCc1nccnc1C(=O)CCN(Cc1ccccc1)C(C)(C)C |
| 100 | CC(C)(C)N(CCC(=O)c1ccc(Cl)s1)Cc1ccccc1 |
| 420 | CCN(CCC(=O)c1ccc(Cl)s1)Cc1ccccc1 |
| 1500 | O=C(CCN(CCO)Cc1ccccc1)c1ccc(Cl)s1 |
| 17000 | CN(CCC(=O)c1ccccn1)Cc1ccccc1 |
| 4500 | CC(C)(C)N(CCO)CCC(=O)c1ccco1 |
| 840 | CCCCN(CCO)CCC(=O)c1ccco1 |
| 2700 | CCN(CCC(=O)c1ccccn1)Cc1ccccc1 |
| 1000 | CC(C)(C)N(CCC(=O)c1ccccn1)Cc1ccccc1 |
| 1100 | CC(C)N(CCC(=O)c1ccccn1)Cc1ccccc1 |
| 420 | Cc1ccc(C(=O)CCN(CCO)C(C)C)o1 |
| 6600 | Cc1ccc(C(=O)CCN(CCO)Cc2ccccc2)o1 |
| 2000 | CN(CCC(=O)c1ccncc1)Cc1ccccc1 |
| > 30000 | CN(CCO)CCC(=O)c1ccccn1 |
| 12000 | CC(C)(C)N(CCO)CCC(=O)c1ccccn1 |
| 9900 | CN(CCO)CCC(=O)c1cnccn1 |

| IC50 [nM] | Structure (SMILES) |
| --- | --- |
| 190 | CC(C)N(CCC(=O)c1ccc(Br)s1)Cc1ccccc1 |
| 81 | CC(C)(C)N(CCC(=O)c1ccc(Br)s1)Cc1ccccc1 |
| 210 | CC(C)(C)N(CCC(=O)c1cc2ccccc2s1)Cc1ccccc1 |
| 5100 | O=C(CCN(CCO)CCO)c1ccccn1 |
| 5400 | CC(C)N(CCO)CCC(=O)c1ccccn1 |
| 4900 | O=C(CCN(CCO)Cc1ccccc1)c1ccncn1 |
| 2700 | CC(C)(C)N(CCO)CCC(=O)c1cnccn1 |
| 1700 | CCCCN(CCO)CCC(=O)c1cnccn1 |
| 9400 | CC(C)N(CCO)CCC(=O)c1cc2ccccc2s1 |
| 1400 | CC(C)(C)N(CCC(=O)c1nccs1)Cc1ccccc1 |
| 1500 | O=C(CCN(CCO)Cc1ccccc1)c1cnccn1 |
| 670 | CCN(CCC(=O)c1cnccn1)Cc1ccccc1 |
| 8500 | O=C(CCN(CCO)Cc1ccccc1)c1nccs1 |
| 16000 | CC(C)N(CCO)CCC(=O)c1nccs1 |
| 6900 | O=C(CCN(CCO)CCO)c1nccs1 |
| 5200 | CN(CCO)CCC(=O)c1cccnc1 |
| 530 | CC(C)N(CCC(=O)c1cnccn1)Cc1ccccc1 |
| 10000 | CC(C)(C)N(CCO)CCC(=O)c1nccs1 |
| 7800 | CC(C)(C)N(CCO)CCC(=O)c1cccnc1 |
| 3300 | O=C(CCN(CCO)CCO)c1cccnc1 |
| 7400 | CC(C)N(CCO)CCC(=O)c1cccnc1 |
| 2300 | O=C(CCN(CCO)Cc1ccccc1)c1cccnc1 |

| IC50 [nM] | Structure (SMILES) |
| --- | --- |
| 4000 | CN(CCC(=O)c1cccnc1)Cc1ccccc1 |
| 680 | Cc1ccc(C(=O)CCN(CCO)C(C)(C)C)o1 |
| 440 | CC(C)(C)N(CCC(=O)c1cccs1)Cc1ccccc1 |
| 1400 | CC(C)N(CCC(=O)c1cccs1)Cc1ccccc1 |
| 4800 | CC(C)N(CCO)CCC(=O)c1ccncc1 |
| 470 | CC(C)(C)N(CCC(=O)c1cccnc1)Cc1ccccc1 |
| 830 | CC(C)N(CCC(=O)c1cccnc1)Cc1ccccc1 |
| 2800 | CCN(CCC(=O)c1ccc(C)o1)Cc1ccccc1 |
| 2100 | CCN(CCC(=O)c1cccs1)Cc1ccccc1 |
| 10000 | CN(CCC(=O)c1cccs1)Cc1ccccc1 |
| 830 | CC(C)N(CCC(=O)c1ccncc1)Cc1ccccc1 |
| 11000 | CC(C)N(CCO)CCC(=O)c1ccsc1 |
| 12000 | CCCCN(CCO)CCC(=O)c1ccsc1 |
| 12000 | CCN(CCC(=O)c1ccsc1)Cc1ccccc1 |
| 1200 | O=C(CCN(CCO)CCO)c1cnccn1 |
| 10000 | CN(CCC(=O)c1ccsc1)Cc1ccccc1 |
| 12000 | O=C(CCN(CCO)Cc1ccccc1)c1ccsc1 |
| 1200 | CN(CCO)CCC(=O)c1ccco1 |
| 1900 | O=C(CCN(CCO)CCO)c1ccc(Cl)s1 |
| 8600 | CC(C)N(CCC(=O)c1ccsc1)Cc1ccccc1 |
| 11000 | CC(C)(C)N(CCC(=O)c1ccsc1)Cc1ccccc1 |
| 770 | CC(C)N(CCC(=O)c1cc2ccccc2s1)Cc1ccccc1 |

| IC50 [nM] | Structure (SMILES) |
| --- | --- |
| 980 | CC(C)N(CCC(=O)c1cc(Cl)sc1Cl)Cc1ccccc1 |
| 2500 | CC(C)N(CCO)CCC(=O)c1cc(Cl)sc1Cl |
| 13000 | O=C(CCN(CCO)CCO)c1ccsc1 |
| 2700 | O=C(CCN(CCO)Cc1ccccc1)c1csc(Cl)c1 |
| 1400 | CC(C)(C)N(CCC(=O)c1ccncc1)Cc1ccccc1 |
| 1700 | CCN(CCC(=O)c1cccnc1)Cc1ccccc1 |
| 6500 | Cc1ccc(C(=O)CCN(CCO)CCO)o1 |
| 18000 | CCc1nccnc1C(=O)CCN(CCO)Cc1ccccc1 |
| 1000 | CN(CCC(=O)c1ccc(Cl)s1)Cc1ccccc1 |
| 570 | CC(C)(C)N(CCC(=O)c1cnccn1)Cc1ccccc1 |
| 4300 | CN(CCC(=O)c1nccs1)Cc1ccccc1 |
| 7700 | CCc1nccnc1C(=O)CCN(CCO)C(C)C |
| 1400 | Cc1ccc(C(=O)CCN(C)CCO)o1 |
| 1300 | O=C(CCN(CCO)Cc1ccccc1)c1ccco1 |
| 120 | CC(C)N(CCO)CCC(=O)c1ccco1 |
| 4300 | Cc1ccc(C(=O)CCN(C)Cc2ccccc2)o1 |
| 8300 | O=C(CCN(CCO)CCO)c1cccs1 |
| 6800 | CC(C)(C)N(CCO)CCC(=O)c1cccs1 |
| 2600 | CCN(CCC(=O)c1nccs1)Cc1ccccc1 |
| 610 | CCN(CCC(=O)c1ccc(Br)s1)Cc1ccccc1 |
| 230 | CC(C)N(CCC(=O)c1ccc(Cl)s1)Cc1ccccc1 |
